Source: the supplement of paper PMC8967900

What was measured:
Test in all cases: selective drug sensitivity score (sDSS, relative to normal bone marrow) (sDSS (score)); higher = more potent and effective on the cell line relative to normal bone marrow cells
Conditions in all cases: 72 h
ALL-SIL = system: ALL-SIL
COG-LL-332h = system: COG-LL-332h
COG-LL-355h = system: COG-LL-355h
COG-LL-402h = system: COG-LL-402h
DND-41 = system: DND-41
HAL-01 = system: HAL-01
KASUMI-9 = system: KASUMI-9
KOPN-8 = system: KOPN-8
MHH-CALL-2 = system: MHH-CALL-2
MHH-CALL-3 = system: MHH-CALL-3
MN-60 = system: MN-60
MOLT-16 = system: MOLT-16
MOLT-4 = system: MOLT-4
NALM-16 = system: NALM-16
P12-ICHIKAWA = system: P12-ICHIKAWA
RCH-ACV = system: RCH-ACV
REH = system: REH
RPMI-8402 = system: RPMI-8402
TANOUE = system: TANOUE
TMD5 = system: TMD5
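Further: ALL cell lines in 384-well plates, five doses spanning 10,000-fold, each plate scaled between vehicle and 100 µmol/L benzalkonium chloride controls, sDSS an adapted area-under-curve metric.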

Compound	selective drug sensitivity score (ALL-SIL)	selective drug sensitivity score (COG-LL-332h)	selective drug sensitivity score (COG-LL-355h)	selective drug sensitivity score (COG-LL-402h)	selective drug sensitivity score (DND-41)	selective drug sensitivity score (HAL-01)	selective drug sensitivity score (KASUMI-9)	selective drug sensitivity score (KOPN-8)	selective drug sensitivity score (MHH-CALL-2)	selective drug sensitivity score (MHH-CALL-3)	selective drug sensitivity score (MN-60)	selective drug sensitivity score (MOLT-16)	selective drug sensitivity score (MOLT-4)	selective drug sensitivity score (NALM-16)	selective drug sensitivity score (P12-ICHIKAWA)	selective drug sensitivity score (RCH-ACV)	selective drug sensitivity score (REH)	selective drug sensitivity score (RPMI-8402)	selective drug sensitivity score (TANOUE)	selective drug sensitivity score (TMD5)
CNC(=O)c1nn(C)c2c1C(C)(C)Cc1cnc(Nc3ccc(N4CCN(C)CC4)cc3)nc1-2 [Milciclib] (top concentration 10000 nM)	10.9	3.24	5.44	12	9.04	5.94	9.94	5.84	9.54	-5.26	2.04	6.44	3.84	3.34	2.34	14.3	4.44	5.54	-3.76	-1.16
CN1CC[C@H](c2c(O)cc(O)c3c(=O)cc(-c4ccccc4Cl)oc23)[C@H](O)C1 [Alvocidib] (top concentration 10000 nM)	-3.3	-0.3	-0.1	-2.1	-4.1	-3.5	-0.7	-1.2	-3.5	-3.6	-3.9	0.7	-2.5	-3.6	-2.1	2.7	-2	-1	-11	-5.7
COc1ccc(S(=O)(=O)Nc2cccnc2Nc2ccc(O)cc2)cc1 [ABT-751] (top concentration 10000 nM)	17.6	11.1	1.02	8.92	6.12	11.7	10.4	14.6	12.6	3.72	5.42	12.6	11.1	11.5	10.4	11.7	15.4	11.9	-3.48	7.32
CC(=O)Nc1cccc(-n2c(=O)n(C3CC3)c(=O)c3c(Nc4ccc(I)cc4F)n(C)c(=O)c(C)c32)c1 [Trametinib] (top concentration 250 nM)	-8.04	-6.04	5.06	-2.54	2.16	2.36	-1.14	4.36	2.96	9.46	-8.04	-1.94	-4.54	-1.24	-3.64	-8.04	-8.04	-8.04	-7.74	0.16
CC(C)c1cc(C(=O)N2Cc3ccc(CN4CCN(C)CC4)cc3C2)c(O)cc1O [Onalespib] (top concentration 2500 nM)	4.52	7.62	3.32	7.22	4.62	1.82	-2.18	6.82	-1.28	8.42	-0.48	7.42	5.92	1.82	2.22	6.52	-0.08	1.32	-6.48	-3.28
CS(=O)(=O)c1ccc(C(=O)Nc2ccc(Cl)c(-c3ccccn3)c2)c(Cl)c1 [Vismodegib] (top concentration 10000 nM)	0.36	-1.14	2.26	-1.14	2.76	-1.14	-0.74	6.76	2.86	-1.14	-1.14	-1.14	-0.44	-1.14	-1.14	3.46	-1.14	-1.14	-1.14	1.26
O=C(Nc1ccncc1)C(=O)c1cn(Cc2ccc(Cl)cc2)c2ccccc12 [Indibulin] (top concentration 10000 nM)	23.4	6.34	-1.46	3.64	5.54	5.34	12	17.9	5.74	1.64	1.84	16	9.64	9.34	6.54	14.6	4.14	5.84	-2.76	3.44
COc1cc(Nc2ncc(F)c(Nc3ccc4c(n3)N(COP(=O)(O)O)C(=O)C(C)(C)O4)n2)cc(OC)c1OC [Fostamatinib] (top concentration 2500 nM)	1.96	-0.44	1.96	3.46	-0.64	0.76	1.76	4.66	0.56	-1.44	-1.34	-2.84	-2.04	-1.44	-2.84	7.96	-1.84	-0.24	-1.94	-2.84
Cn1ncc(Cl)c1-c1cc(C(=O)N[C@H](CN)Cc2cccc(F)c2)sc1Cl [Afuresertib] (top concentration 1000 nM)	3.66	2.86	2.76	4.56	-2.34	3.96	1.86	6.06	7.36	-1.94	-0.54	10.4	6.26	1.46	-0.44	5.36	3.56	1.16	-1.94	-2.34
CCN1CCN(Cc2ccc(Nc3ncc(F)c(-c4cc(F)c5nc(C)n(C(C)C)c5c4)n3)nc2)CC1 [Abemaciclib] (top concentration 2500 nM)	-2.66	-1.66	6.44	1.74	0.34	-3.06	5.44	20.2	-3.96	1.24	-8.16	8.24	-1.96	-6.46	-4.06	8.74	-0.06	0.74	-9.66	-9.66
Cc1ncc(-c2ccnc(Nc3ccc(S(C)(=O)=O)cc3)n2)n1C(C)C [AZD-5438] (top concentration 10000 nM)	-3.86	-0.16	3.94	-0.46	-2.06	-5.96	-0.26	5.24	-1.06	6.64	-7.96	5.44	-5.46	-6.16	-0.36	2.44	1.54	-0.76	-9.96	-5.96
C[C@]1(c2nc3c(C(N)=O)cccc3[nH]2)CCCN1 [Veliparib] (top concentration 10000 nM)	-4.18	-1.48	2.82	-3.48	-4.18	1.02	1.72	5.52	5.02	0.42	-3.38	0.32	-2.88	-4.18	-4.18	-2.58	-4.18	-3.88	-4.18	-4.18
O=C(Nc1cccc(Nc2ncc(Br)c(NCCc3cnc[nH]3)n2)c1)N1CCCC1 [BX-912] (top concentration 10000 nM)	9.36	7.56	1.36	6.16	2.56	-3.64	10.5	12.4	2.86	3.06	-1.44	9.06	6.56	-0.14	10.2	13.3	7.96	3.36	-7.04	2.06
C=C1C[C@@H]2[C@H](CC[C@]3(C)C(=O)CC[C@@H]23)[C@@]2(C)C=CC(=O)C=C12 [Exemestane] (top concentration 10000 nM)	-1.9	2.4	1	2.2	-1.9	3.8	-0.8	5.8	-0.9	0.1	-1.9	-1.7	-1.9	-1.9	-1.9	0.4	-1.9	-1.9	-0.7	-0.1
Nc1ncnc2c1nc(Cl)n2[C@@H]1O[C@H](CO)[C@@H](O)[C@H]1O [8-chloro-adenosine] (top concentration 50000 nM)	-3.4	0.9	-3.6	3.1	-3.9	-1.5	2.4	5.9	2.4	-1.6	-2.8	7.1	3.3	-3.1	-2.4	1.4	-0.6	-0.9	-5.3	-2.1
Cc1ccc(C(=O)Nc2cccc(C(F)(F)F)c2)cc1Nc1nc(-c2cccnc2)nc2c1cnn2C [NVP-BHG712] (top concentration 10000 nM)	13.3	5.98	4.48	-2.32	5.38	2.98	5.18	7.78	5.28	1.48	0.68	3.68	3.08	-2.32	3.08	7.78	6.18	5.08	-2.32	7.28
CN(C)CCOc1ccc(/C(=C(/CCCl)c2ccccc2)c2ccccc2)cc1 [Toremifene] (top concentration 10000 nM)	1.28	0.98	2.28	-2.72	6.78	3.18	0.58	0.98	9.68	-2.52	0.78	3.38	2.58	-0.82	-1.12	6.88	-1.52	0.58	-2.62	0.78
NCC(=O)Nc1ccc(-n2nc(C(F)(F)F)cc2-c2ccc3c(ccc4ccccc43)c2)cc1 (top concentration 25000 nM)	8.4	14.3	-0.2	-0.2	7.5	5.5	8.1	7.4	7.1	-0.2	18.9	19	14.7	5.4	16.7	17.3	12.5	13	4.7	-0.2
CC(C)C[C@H](NC(=O)CNC(=O)c1cc(Cl)ccc1Cl)B(O)O [Ixazomib] (top concentration 1000 nM)	7.56	8.16	6.56	3.46	9.36	8.26	6.56	6.26	5.26	8.96	-1.84	7.06	5.46	0.66	5.76	7.36	6.76	6.56	-6.64	4.06
